According to US20250032454A1, “KDM1A INHIBITORS FOR THE TREATMENT OF DISEASE” (Imago Biosciences, Inc., priority 2021, published 2025):

What follows are compounds tested against LSD1 (Homo sapiens, UniProt O60341) (assay: LSD1 fluorescence coupling enzyme assay (HRP/Amplex Red, H3(1-21)K4me2 peptide), 10-dose IC50). Settings: 10 μM histone H3(1-21)K4me2 peptide substrate, 3-fold serial dilution from 100 μM.
Format: biochemical
Description: Assaying the inhibition of KDM1A can be determined in vitro, in cultured cells, and in animals. There are a variety of spectrophotometric methods to detect the results of demethylation of methylated lysines, viz., detecting the products of KDM1A demethylase oxidative activity on a peptide fragment of at least 18 amino acids representing the N-terminus of the histone H3 substrate that contains a monomethyl at the fourth lysine residue. Hydrogen peroxide, one product of the KDM1A demethylase reaction, reacts with horseradish peroxidase and dihydroxyphenoxazine (ADHP) to produce the fluorescent compound resorufin (excitation=530-560 nm: emission=590 nm). The KDM1A demethylase enzyme activity can be obtained from mammalian cells or tissues expressing KDM1A from an endogenous or recombinant gene and purified or assayed from a whole cell extract. These methods can be used to determine the concentration of the disclosed compounds can inhibit fifty percent of the enzyme activity (IC50).
Alternatively, the production of H2O2 during the KDM1A reaction can be detected fluometrically. In this system, the production of H2O2 is detected in the HDM assay buffer after exposure to substrate, co-factor and enzyme using ADHP (10-Acetyl-3, 7-dihydroxyphenoxazine) as a fluorogenic substrate for horse radish peroxidase (HRP). […] The florescent product is resorufin. Sensitivity can be as low as 10-15 M of target protein. The signal is read using a fluorescence microplate reader at excitation and emission wavelengths of 530-560 nm and 590 nm, respectively.
Compounds were tested in a 10-dose IC50 mode fluorescence coupling enzyme assay with 3-fold serial dilution in duplicate starting at 100 μM. The production of FAD-dependent H2O2 as a result of demethylase activity of LSD1 on 10 μM histone H3(1-21)K4me2 peptide substrate was measured by coupling with HRP and Amplex Red to yield resorufin (fluorescence measured at Ex/Em=535/590 nm on EnVision, Perkin Elmer).
For `N#Cc1ccc(-c2cc(NC[C@@H]3CCCNCC3)nn2-c2ccc(N3CCS(=O)(=O)CC3)cc2F)cc1F` [Example 106, (R)-4-(3-((azepan-4-ylmethyl)amino)-1-(4-(1,1-dioxidothiomorpholino)-2-fluorophenyl)-1H-pyrazol-5-yl)-2-fluorobenzonitrile], the IC50 was < 500 nM.
With `N#Cc1ccc(-c2cc(NCC3CCCNCC3)nn2-c2ccc(N3CCS(=O)(=O)CC3)cc2F)cc1F` (centres unmarked) [Example 107, 4-(3-((azepan-4-ylmethyl)amino)-1-(4-(1,1-dioxidothiomorpholino)-2-fluorophenyl)-1H-pyrazol-5-yl)-2-fluorobenzonitrile] the IC50 was < 500 nM.
For `N#Cc1ccc(-c2cc(NCC3CNCCO3)nn2-c2ccc(N3CCS(=O)(=O)CC3)cc2F)cc1F` (centres unmarked) [Example 108, 4-(1-(4-(1,1-dioxidothiomorpholino)-2-fluorophenyl)-3-((morpholin-2-ylmethyl)amino)-1H-pyrazol-5-yl)-2-fluorobenzonitrile 2,2,2-trifluoroacetate], the IC50 was < 500 nM.
With `CN1CCN(c2ccc(-n3nc(NC[C@H]4CCC[C@H](N)C4)cc3-c3ccc(C#N)c(F)c3)c(F)c2)CC1=O` [Example 109, 4-(3-((((1S,3S)-3-aminocyclohexyl)methyl)amino)-1-(2-fluoro-4-(4-methyl-3-oxopiperazin-1-yl)phenyl)-1H-pyrazol-5-yl)-2-fluorobenzonitrile] the IC50 was < 500 nM.
`N#Cc1ccc(-c2cc(NCC3CCCNCC3)nn2-c2ccc(N3CCS(=O)(=O)CC3)c(F)c2)cc1F` (centres unmarked) [Example 110, 4-(3-((azepan-4-ylmethyl)amino)-1-(4-(1,1-dioxidothiomorpholino)-3-fluorophenyl)-1H-pyrazol-5-yl)-2-fluorobenzonitrile 2,2,2-trifluoroacetate] was tested, and the IC50 was < 500 nM.
For `N#Cc1ccc(-c2cc(NC[C@@H]3CCCNCC3)nn2-c2ccc(N3CCS(=O)(=O)CC3)c(F)c2)cc1F` [Example 111, (R)-4-(3-((azepan-4-ylmethyl)amino)-1-(4-(1,1-dioxidothiomorpholino)-3-fluorophenyl)-1H-pyrazol-5-yl)-2-fluorobenzonitrile 2,2,2-trifluoroacetate], the IC50 was < 500 nM.
`COc1cc(N2CCS(=O)(=O)CC2)ccc1-n1nc(NC[C@H]2CCCNCC2)cc1-c1ccc(C#N)c(F)c1` [Example 112, (S)-4-(3-((azepan-4-ylmethyl)amino)-1-(4-(1,1-dioxidothiomorpholino)-2-methoxyphenyl)-1H-pyrazol-5-yl)-2-fluorobenzonitrile 2,2,2-trifluoroacetate] was tested, and the IC50 was < 500 nM.
For `COc1cc(N2CCS(=O)(=O)CC2)ccc1-n1nc(NC[C@@H]2CCCNCC2)cc1-c1ccc(C#N)c(F)c1` [Example 113, (R)-4-(3-((azepan-4-ylmethyl)amino)-1-(4-(1,1-dioxidothiomorpholino)-2-methoxyphenyl)-1H-pyrazol-5-yl)-2-fluorobenzonitrile 2,2,2-trifluoroacetate], the IC50 was < 500 nM.
In the case of `COc1cc(N2CCC(OC)CC2)ccc1-n1nc(NC[C@H]2CCC[C@H](N)C2)cc1-c1ccc(C#N)c(F)c1` [Example 114, 4-(3-((((1S,3S)-3-aminocyclohexyl)methyl)amino)-1-(2-methoxy-4-(4-methoxypiperidin-1-yl)phenyl)-1H-pyrazol-5-yl)-2-fluorobenzonitrile 2,2,2-trifluoroacetate], the IC50 is reported as < 500 nM.
In the case of `COc1cc(N2CCC(C)(O)CC2)ccc1-n1nc(NC[C@H]2CCC[C@H](N)C2)cc1-c1ccc(C#N)c(F)c1` [Example 115, 4-(3-((((1S,3S)-3-aminocyclohexyl)methyl)amino)-1-(4-(4-hydroxy-4-methylpiperidin-1-yl)-2-methoxyphenyl)-1H-pyrazol-5-yl)-2-fluorobenzonitrile 2,2,2-trifluoroacetate], the IC50 is reported as 1000 to 10000 nM.
`CC1(O)CCN(c2ccc(-n3nc(NC[C@H]4CCC[C@H](N)C4)cc3-c3ccc(C#N)c(F)c3)c(F)c2)CC1` [Example 116, 4-(3-((((1S,3S)-3-aminocyclohexyl)methyl)amino)-1-(2-fluoro-4-(4-hydroxy-4-methylpiperidin-1-yl)phenyl)-1H-pyrazol-5-yl)-2-fluorobenzonitrile 2,2,2-trifluoroacetate] was tested, and the IC50 was < 500 nM.
For `COc1cc(N2CCN(C)C(=O)C2)ccc1-n1nc(NC[C@H]2CCC[C@H](N)C2)cc1-c1ccc(C#N)c(F)c1` [Example 117, 4-(3-((((1S,3S)-3-aminocyclohexyl)methyl)amino)-1-(2-methoxy-4-(4-methyl-3-oxopiperazin-1-yl)phenyl)-1H-pyrazol-5-yl)-2-fluorobenzonitrile], the IC50 was < 500 nM.
With `COC1CCN(c2cccc(-n3nc(NC[C@H]4CCC[C@H](N)C4)cc3-c3ccc(C#N)c(F)c3)c2)CC1` [Example 118, 4-(3-((((1S,3S)-3-aminocyclohexyl)methyl)amino)-1-(3-(4-methoxypiperidin-1-yl)phenyl)-1H-pyrazol-5-yl)-2-fluorobenzonitrile 2,2,2-trifluoroacetate] the IC50 was 1000 to 10000 nM.
`N#Cc1ccc(-c2cc(NC[C@H]3CCC[C@H](N)C3)nn2-c2ccc3c(c2)NCCO3)cc1F` [Example 119, 4-(3-((((1S,3S)-3-aminocyclohexyl)methyl)amino)-1-(3,4-dihydro-2H-benzo[b][1,4]oxazin-6-yl)-1H-pyrazol-5-yl)-2-fluorobenzonitrile 2,2,2-trifluoroacetate] was tested, and the IC50 was < 500 nM.
`COC1CCN(c2ccc(-n3nc(NC[C@H]4CCC[C@H](N)C4)cc3-c3ccc(C#N)c(F)c3)nc2)CC1` [Example 120, 4-(3-((((1S,3S)-3-aminocyclohexyl)methyl)amino)-1-(5-(4-methoxypiperidin-1-yl)pyridin-2-yl)-1H-pyrazol-5-yl)-2-fluorobenzonitrile 2,2,2-trifluoroacetate] was tested, and the IC50 was < 500 nM.
With `N#Cc1ccc(-c2cc(NCC34CCN(CC3)CC4)nn2-c2ccc(N3CC4CC3CS4(=O)=O)cc2)cc1F` (centres unmarked) [Example 121, 4-(1-(4-(2,2-Dioxido-2-thia-5-azabicyclo[2.2.1]heptan-5-yl)phenyl)-3-((quinuclidin-4-ylmethyl)amino)-1H-pyrazol-5-yl)-2-fluorobenzonitrile 2,2,2-trifluoroacetate] the IC50 was < 500 nM.
With `CC(C)Oc1cc(N2CCS(=O)(=O)CC2)ccc1-n1nc(NCC23CCN(CC2)CC3)cc1-c1ccc(C#N)c(F)c1` [Example 122, 4-(1-(4-(1,1-Dioxidothiomorpholino)-2-isopropoxyphenyl)-3-((quinuclidin-4-ylmethyl)amino)-1H-pyrazol-5-yl)-2-fluorobenzonitrile 2,2,2-trifluoroacetate] the IC50 was 1000 to 10000 nM.
In the case of `N#Cc1ccc(-c2cc(NCC34CCN(CC3)CC4)nn2-c2ccc3c(c2)NCCO3)cc1F` [Example 123, 4-(1-(3,4-Dihydro-2H-benzo[b][1,4]oxazin-6-yl)-3-((quinuclidin-4-ylmethyl)amino)-1H-pyrazol-5-yl)-2-fluorobenzonitrile 2,2,2-trifluoroacetate], the IC50 is reported as < 500 nM.
For `COC1CCN(c2ccc(-n3nc(NCC45CCN(CC4)CC5)cc3-c3ccc(C#N)c(F)c3)cc2)CC1` [Example 124, 2-Fluoro-4-(1-(4-(4-methoxypiperidin-1-yl)phenyl)-3-((quinuclidin-4-ylmethyl)amino)-1H-pyrazol-5-yl)benzo-nitrile 2,2,2-trifluoroacetate], the IC50 was < 500 nM.
`COC1(C)CCN(c2ccc(-n3nc(NCC45CCN(CC4)CC5)cc3-c3ccc(C#N)c(F)c3)cc2)CC1` [Example 125, 2-Fluoro-4-(1-(4-(4-methoxy-4-methylpiperidin-1-yl)phenyl)-3-((quinuclidin-4-ylmethyl)amino)-1H-pyrazol-5-yl)benzonitrile 2,2,2-trifluoroacetate] was tested, and the IC50 was < 500 nM.
`COc1cc(N2CCS(=O)(=O)CC2)ccc1-n1nc(NCC23CCN(CC2)CC3)cc1-c1ccc(C#N)c(F)c1` [Example 126, 4-(1-(4-(1,1-Dioxidothiomorpholino)-2-methoxyphenyl)-3-((quinuclidin-4-ylmethyl)amino)-1H-pyrazol-5-yl)-2-fluorobenzonitrile 2,2,2-trifluoroacetate] was tested, and the IC50 was < 500 nM.
For `CN1CCN(c2ccc(-n3nc(NC[C@H]4CCC[C@H](NC(=N)N)C4)cc3-c3ccc(C#N)c(F)c3)cc2)CC1` [Example 127, 1-((1S,3S)-3-(((5-(4-cyano-3-fluorophenyl)-1-(4-(4-methylpiperazin-1-yl)phenyl)-1H-pyrazol-3-yl)amino)methyl)cyclohexyl)guanidine 2,2,2-trifluoroacetate], the IC50 was < 500 nM.
`COC1CCN(c2ccc(-n3nc(NC[C@H]4CCC[C@H](NC(=N)N)C4)cc3-c3ccc(C#N)c(F)c3)cc2)CC1` [Example 128, 1-((1S,3S)-3-(((5-(4-cyano-3-fluorophenyl)-1-(4-(4-methoxypiperidin-1-yl)phenyl)-1H-pyrazol-3-yl)amino)methyl)cyclohexyl)guanidine] was tested, and the IC50 was < 500 nM.
